Laboratory results as given in the supplement of paper PMC7840683.
± gives the standard deviation of the averaged measurements.

System: HepaRG
Assay: LDH release cytotoxicity, % of total lysis control; higher = more cytotoxic
Conditions: 48 h
In short: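 The CytoTox-ONE kit was used to read LDH in 50 µL spent medium as resorufin fluorescence on a Tecan Safire, with 0.1% Triton X added to total lysis wells. Beforehand, single-lot HepaRG cells on collagen I-coated 96-well plates had been exposed in duplicate for 48 h to eight-point half-log series (top 100 µM) in serum-free induction medium containing 0.5% DMSO. Percent cytotoxicity was normalized against on-plate vehicle and total lysis controls and averaged over duplicates.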

| SMILES | LDH release cytotoxicity (0.03162 µM) [%] | LDH release cytotoxicity (0.1 µM) [%] | LDH release cytotoxicity (0.3162278 µM) [%] | LDH release cytotoxicity (1 µM) [%] | LDH release cytotoxicity (3.16228 µM) [%] | LDH release cytotoxicity (10 µM) [%] | LDH release cytotoxicity (31.6228 µM) [%] | LDH release cytotoxicity (100 µM) [%] | further results |
| --- | --- | --- | --- | --- | --- | --- | --- | --- | --- |
| COc1cc(-c2nc(NC(=O)c3cc4cc(C)cc(C)c4n3CC(=O)O)sc2CCC2CCCCC2)c(OC)cc1Cl | – | – | – | – | – | – | – | – | LDH release cytotoxicity (0.0267212 µM): 0.271 ± 0.48%; LDH release cytotoxicity (0.0845 µM): -0.13 ± 0.2%; LDH release cytotoxicity (0.267213 µM): -0.107 ± 0.19%; LDH release cytotoxicity (0.845 µM): 0.419 ± 0.64%; LDH release cytotoxicity (2.67212 µM): -0.184 ± 1%; LDH release cytotoxicity (8.45 µM): 37.3 ± 4.1%; LDH release cytotoxicity (26.7212 µM): 67.7 ± 1.7%; LDH release cytotoxicity (84.5 µM): 78.3 ± 3.5% |
| c1ccc2c(c1)oc1ccccc12 [Dibenzofuran] | -0.992 ± 0.24 | -1.07 ± 0.44 | -1.34 ± 0.76 | -1.2 ± 0.83 | -1.19 ± 1 | -0.829 ± 0.93 | -0.8185 ± 0.0015 | 1.45 ± 0.45 | – |
| CS(=O)(=O)OCCCCOS(C)(=O)=O [Busulfan] | -1.48 ± 0.87 | -0.871 ± 0.9 | -1.32 ± 0.64 | -2.08 ± 0.32 | -1.19 ± 0.19 | -0.461 ± 0.33 | 0.385 ± 0.76 | 0.593 ± 0.42 | – |
| O=C(O)CC(O)C(=O)O (stereo unspecified) [Malic acid] | -1.2 ± 0.52 | -1.77 ± 0.018 | -1.39 ± 0.22 | -1.28 ± 1.3 | -1.27 ± 0.26 | -1.41 ± 0.57 | -1.33 ± 0.1 | 0.326 ± 0.19 | – |
| CN1CC=NC1=S [Methimazole] | -0.734 | -1.69 ± 0.39 | -2.04 ± 0.31 | -2.56 ± 0.11 | -1.77 ± 0.33 | -1.81 ± 0.21 | -1.83 ± 0.38 | -0.15 ± 0.28 | – |
| COc1ccc(C(c2ccc(OC)cc2)C(Cl)(Cl)Cl)cc1 [Methoxychlor] | – | – | – | – | – | – | – | – | LDH release cytotoxicity (0.0314647 µM): -0.145 ± 0.82%; LDH release cytotoxicity (0.0995 µM): -0.434 ± 1.2%; LDH release cytotoxicity (0.3146466 µM): -0.0516 ± 0.38%; LDH release cytotoxicity (0.995 µM): 0.115 ± 0.092%; LDH release cytotoxicity (3.14647 µM): 0.0841 ± 0.19%; LDH release cytotoxicity (9.95 µM): -0.153 ± 0.2%; LDH release cytotoxicity (31.4647 µM): 0.12 ± 0.78%; LDH release cytotoxicity (99.5 µM): 17 ± 0.64% |
| CC(C)(C)c1ccccc1O [2-tert-Butylphenol] | -1.05 ± 0.97 | -1.24 ± 0.37 | -1.22 ± 0.3 | -1.31 ± 1.3 | -0.599 ± 0.044 | -0.21 ± 0.92 | -0.521 ± 0.091 | 0.121 ± 1 | – |
| CC(=O)OCC1OC(OC2(COC(C)=O)OC(COC(C)=O)C(OC(C)=O)C2OC(C)=O)C(OC(C)=O)C(OC(C)=O)C1OC(C)=O (stereo unspecified) [Sucrose octaacetate] | – | – | – | – | – | – | – | – | LDH release cytotoxicity (0.0238752 µM): -0.662 ± 1.5%; LDH release cytotoxicity (0.0755 µM): -0.298 ± 1.5%; LDH release cytotoxicity (0.238752 µM): -0.188 ± 0.8%; LDH release cytotoxicity (0.755 µM): -1.45 ± 0.2%; LDH release cytotoxicity (2.38752 µM): -0.463 ± 0.58%; LDH release cytotoxicity (7.55 µM): -0.261 ± 0.3%; LDH release cytotoxicity (23.8752 µM): -0.0769 ± 0.54%; LDH release cytotoxicity (75.5 µM): 1.89 ± 0.36% |
| Nc1cccc2c(N)cccc12 [1,5-Naphthalenediamine] | -0.228 ± 0.2 | -1.23 ± 0.16 | -1.58 ± 0.12 | -2.39 ± 0.034 | -1.95 ± 0.3 | -1.12 ± 0.45 | -1.51 ± 0.7 | 0.44 ± 0.38 | – |
| CC(C)(c1ccccc1)c1ccc(O)cc1 [4-Cumylphenol] | -1.06 ± 1.8 | 0.26 ± 0.48 | -1.3 ± 0.86 | -2.27 ± 0.56 | -0.891 ± 1.4 | -0.313 ± 0.88 | 2.91 ± 0.44 | 111 ± 5.5 | – |
| COCc1nnc(-c2ccc[n+]([O-])c2)n1-c1c(Cl)c(Cl)cc2[nH]c(=O)c(=O)[nH]c12 | -1.68 ± 0.083 | -1.55 ± 0.35 | -2.04 ± 0.24 | -2.82 ± 1.1 | -2.03 ± 0.3 | -1.6 ± 0.17 | -1.69 ± 0.83 | -0.641 ± 0.26 | – |
| C1=Cc2cccc3cccc1c23 [Acenaphthylene] | – | -2.98 ± 1.1 | – | -2.28 ± 0.87 | -2.7 ± 0.39 | -2.757 ± 0.027 | -1.56 ± 0.24 | 1 ± 0.85 | LDH release cytotoxicity (0.031623 µM): -0.662 ± 0.2%; LDH release cytotoxicity (0.316228 µM): -2.7 ± 0.37% |
| Cn1sc(Cl)cc1=O [5-Chloro-2-methyl-3(2H)-isothiazolone] | -0.707 ± 0.6 | -1.2 ± 0.15 | -0.511 ± 0.28 | -1.23 ± 0.16 | -0.949 ± 0.12 | -0.788 ± 0.64 | -1.56 ± 0.12 | -1.76 ± 0.26 | – |
| NCCOCCOCCN [2,2'-[Ethane-1,2-diylbis(oxy)]diethanamine] | -0.945 ± 0.74 | -1.12 ± 0.47 | -0.214 ± 0.033 | 0.303 ± 0.8 | 2.6 ± 0.91 | 2.46 ± 0.46 | 1.93 ± 0.86 | 4 ± 0.68 | – |
| CCCOc1nn(C(=O)NS(=O)(=O)c2ccccc2C(=O)OC)c(=O)n1C [Propoxycarbazone-sodium] | 0.284 ± 0.84 | 0.427 ± 0.12 | -0.758 ± 0.093 | -0.962 ± 0.093 | -0.435 ± 0.032 | -0.39 ± 0.58 | -0.185 ± 0.43 | 0.864 ± 0.4 | – |
| C=CC(=O)OCCCCCC(C)C [Isooctyl acrylate] | -1 ± 0.16 | -1.54 ± 0.15 | -2.08 ± 0.28 | -1.07 ± 0.63 | -1.61 ± 0.64 | -1.55 ± 0.55 | -0.382 ± 0.33 | 0.567 ± 1.4 | – |
| Clc1cccc(C(Cl)(Cl)Cl)n1 [Nitrapyrin] | – | -0.859 ± 0.33 | – | -2.43 ± 0.29 | -2.02 ± 0.78 | -1.29 ± 0.76 | -1.63 ± 1.3 | 1.2 ± 0.065 | LDH release cytotoxicity (0.031623 µM): -0.0337 ± 1.6%; LDH release cytotoxicity (0.316228 µM): -1.7 ± 1.4% |
| O=C(O)c1cccc(Oc2ccccc2)c1 [3-Phenoxybenzoic acid] | – | – | – | – | – | – | – | – | LDH release cytotoxicity (0.0253 µM): 2.02 ± 1.1%; LDH release cytotoxicity (0.08 µM): 1.68 ± 0.14%; LDH release cytotoxicity (0.252982 µM): 1.75 ± 0.9%; LDH release cytotoxicity (0.8 µM): 0.842 ± 0.14%; LDH release cytotoxicity (2.52982 µM): 0.659 ± 0.3%; LDH release cytotoxicity (8 µM): -0.233 ± 0.036%; LDH release cytotoxicity (25.2982 µM): -0.367 ± 0.52%; LDH release cytotoxicity (80 µM): -1.57 ± 0.08% |
| Cc1ccc(O)cc1 [p-Cresol] | -0.87 ± 0.85 | -2.34 ± 0.61 | -1.45 ± 1.2 | -0.608 ± 0.68 | -1.02 ± 0.95 | -1.22 ± 0.042 | -0.051 ± 0.075 | 1.76 ± 0.21 | – |
| CCOCCO [2-Ethoxyethanol] | -0.38 ± 0.81 | 0.655 ± 1 | -0.174 ± 0.26 | 0.482 ± 0.056 | 0.0895 ± 0.63 | 0.267 ± 1.2 | 0.257 ± 0.32 | 1.46 ± 0.97 | – |
| O=C(O)C1C(C(=O)O)C2(Cl)C(Cl)=C(Cl)C1(Cl)C2(Cl)Cl (stereo unspecified) [Chlorendic acid] | -0.458 ± 0.46 | -0.878 ± 0.64 | -1.72 ± 0.51 | -1.15 ± 0.69 | -0.967 ± 0.21 | -0.519 ± 0.29 | -0.436 ± 0.8 | 0.638 ± 1.1 | – |
| O=C(CCCCCCCCc1cccnc1)N1CCC(C=C(c2ccccc2)c2ccccc2)CC1 [Ro 23-7637] | 0.3 ± 0.18 | -1.044 ± 0.0079 | -0.912 ± 1.2 | -1.28 ± 0.79 | -1.65 ± 0.1 | -1.03 ± 0.15 | 11.7 ± 0.14 | 63.3 ± 1.2 | – |
| OCCC(F)(F)C(F)(F)C(F)(F)C(F)(F)C(F)(F)C(F)(F)C(F)(F)C(F)(F)F [8:2 Fluorotelomer alcohol] | – | -0.0838 ± 1.2 | – | -2.22 ± 0.18 | -2.23 ± 0.56 | -1.35 ± 0.57 | -1.87 ± 0.66 | 0.405 ± 2.2 | LDH release cytotoxicity (0.031623 µM): -0.581 ± 1.7%; LDH release cytotoxicity (0.316228 µM): -1.41 ± 0.61% |
| Cc1ccc2oc(CN(Cc3ccccc3)C(=O)Nc3c(F)cc(F)cc3F)c(-c3ccc(Cl)cc3)c2c1 | – | – | – | – | – | – | – | – | LDH release cytotoxicity (0.0279862 µM): -1.59 ± 1.2%; LDH release cytotoxicity (0.0885 µM): -1.08 ± 0.43%; LDH release cytotoxicity (0.279862 µM): -1.56 ± 0.098%; LDH release cytotoxicity (0.885 µM): -1.22 ± 0.62%; LDH release cytotoxicity (2.7986157 µM): -1.44 ± 0.12%; LDH release cytotoxicity (8.85 µM): -1.09 ± 0.59%; LDH release cytotoxicity (27.9862 µM): -0.962 ± 0.17%; LDH release cytotoxicity (88.5 µM): 2.85 ± 1.8% |
| CC1(C)C(=O)N(Cl)C(=O)N1Cl [1,3-Dichloro-5,5-dimethylhydantoin] | 0.112 ± 0.0031 | -1.567 ± 0.014 | -0.979 ± 0.12 | -0.604 ± 0.23 | -0.443 ± 0.098 | -0.243 ± 0.15 | 1.54 ± 2 | 0.626 ± 0.89 | – |
| CCC(=C(CC)c1ccc(O)cc1)c1ccc(O)cc1 [Diethylstilbestrol] | – | -0.295 ± 1.4 | – | -2.18 ± 0.15 | -2.64 ± 1.2 | -2.24 ± 0.36 | -0.817 ± 0.032 | 0.74 ± 1.1 | LDH release cytotoxicity (0.031623 µM): -1.08 ± 0.25%; LDH release cytotoxicity (0.316228 µM): -1.31 ± 0.079% |
| CCCCOC(=O)C(C)Oc1ccc(Oc2ccc(C(F)(F)F)cn2)cc1 (stereo unspecified) [Fluazifop-P-butyl] | – | – | – | – | – | – | – | – | LDH release cytotoxicity (0.0317809 µM): -1.34 ± 1.1%; LDH release cytotoxicity (0.1005 µM): -0.704 ± 2.2%; LDH release cytotoxicity (0.317809 µM): -1.02 ± 2.1%; LDH release cytotoxicity (1.005 µM): -0.805 ± 2.7%; LDH release cytotoxicity (3.17809 µM): -1.3 ± 1.6%; LDH release cytotoxicity (10.05 µM): -0.416 ± 3.4%; LDH release cytotoxicity (31.7809 µM): 0.0852 ± 1.8%; LDH release cytotoxicity (100.5 µM): -0.23 ± 1.1% |
